Assay results taken from patent US20090035313A1, “Compounds” (Pfizer Inc., priority 2003, published 2009).

Test system: TNFα release from human peripheral blood mononuclear cells
Experiment: Inhibition of LPS-stimulated TNFα release from human peripheral blood mononuclear cells (TNFα screen, ELISA)
Type: cell-based
Conditions: LPS-stimulated human PBMC, 18 hours incubation, TNFα in supernatant by ELISA
Method: Venous blood is collected from healthy volunteers and the mononuclear cells purified by centrifugation through Histopaque (Ficoll) cushions. TNFα production from these cells is stimulated by addition of lipopolysaccharide. After 18 hours incubation in the presence of LPS, the cell supernatant is removed and the concentration of TNFα in the supernatant determined by ELISA.

## COc1ccc2cccnc2c1S(=O)(=O)N[C@H]1CC[C@@H](NC(=O)c2cccnc2OC2CCSCC2)CC1 [Example 29, Syn-N-[4-(7-methoxy-quinoline-8-sulfonylamino)-cyclohexyl]-2-(tetrahydro-thiopyran-4-yloxy)-nicotinamide]
  IC50: 0.4 nM
